Reference: US20250289793A1, “MACROCYCLIC INHIBITORS OF ATP CITRATE LYASE” (Esperion Therapeutics, Inc., priority 2022, published 2025)

How the values were obtained:
[1] = biological target: T1, ACLY (Homo sapiens (Human), UniProt P53396); assay: Human ACLY (hACLY) RF/MS activity assay; assay type: biochemical; conditions: 1 nM hACLY; 30 min pre-incubation; 15 μM Coenzyme A, 50 μM ATP, 50 μM citrate; CoA to Acetyl-CoA by RF/MS; read-out: RFMS IC50 GMean
Procedure: Compounds of the disclosure were evaluated for their efficacy in inhibiting hACLY using rapid fire mass spectrometry (RF/MS).
The final reaction volume for each compound was 20 μl and consisted of buffer (50 mM Hepes pH 8.0, 10 mM MgCl2, 0.003% BSA, 0.01% Brij35, 50 mM NaCl, 4 mM DTT) and 1 nM hACLY, EV12992, PP6692) using Greiner, 384 well small volume, deep well plates (Cat #784201). A two-fold dilution series with a top concentration of 10 μM was used to record a concentration response curve. Both the substrate (CoA) and product (Acetyl-CoA) were quantified, and given a ratio. […] The final DMSO-concentration was 1% (v/v). Compounds were pre-incubated for 30 min with the buffered enzyme solution at RT (20° C.), and substrate solution was added (final concentrations: 15 μM Coenzyme A, 50 μM ATP and 50 μM citrate) to initiate the enzyme reaction. The enzyme reaction was incubated for additional 30 min at RT. The reaction was quenched upon addition of 40 μl of 5% Formic acid in H2O and centrifuged (4350 rpm at 20° C. for 10 min).
Product formation was quantified using a RF/MS-based method based on mass change of CoA (substrate) to Acetyl-CoA (product).

[2] = biological target: T1, ACLY; assay: InCell Pulse assay (permeate HEK293 cells, bind to and stabilize ACLY); assay type: cell-based; conditions: HEK293 cells transfected with pICP-ACLY(FL)-ePL; 1 hour at 37° C., 55° C. heat pulse 10 minutes; read-out: InCell Pulse IC50 GMean
Procedure: HEK293 cells transfected for 24 hours with pICP-ACLY(FL)-ePL (3 μg DNA per T25 flask) using FuGene HD (Promega Corp.) were harvested and cryopreserved. On the day of the assay, the frozen transfected cells were thawed at 37° C., and the storage medium (DMEM with 2 mM L-Glutamine, 10% FBS and a final concentration of DMSO 10%) was exchanged with assay medium (OptiMEM; Gibco™, ThermoFischer Scientific). Compounds were 3-fold serially diluted in DMSO over 11-point concentration range. 100 nL of the corresponding dilutions were spotted into the assay plate (Greiner AG; 384 Well, PP, Small Volume, Deep Well, Natural, cat. no. 784201) followed by the addition of 20 μL of cell suspension adjusted with assay medium to 7.5E4 cells/mL. Subsequently, the plates were sealed and incubated for 1 hour at 37° C. Afterwards, the plates were fixed upside down in a rack and incubated in a 55° C. water bath for 10 minutes. Following this heat pulse step, plates were allowed to reach room temperature for 10 minutes and centrifuged for a few seconds at 1000 rpm and room temperature. 25 μL EA detection solution (working solution: 0.0167× InCell EA Reagent, 0.15× InCell Dilution Buffer, 0.167× InCell Lysis Buffer; 0.667× InCell Substrate Reagent; InCell Hunter Detection kit; Eurofins DiscoverX; cat. no. 96-0079) were added to each well. Afterwards, 42 μL were transferred from the assay plate to the detection plate (Corning Inc., 384-well Low Flange Black Flat Bottom Polystyrene NBS Microplate, cat. no. 3575), followed by an incubation for 1 hour at room temperature, a centrifugation step for 1 minute at 1000 rpm and the detection of the luminescence signal using an EnVision microplate reader (Perkin Elmer Inc.). Concentration-response curve-fitting and IC50 determination was performed using Evotec's in-house evaluation software APlus with a four-parameter non-linear regression fit model. Data was normalized to 0.5% (final concentration) DMSO as low/negative control and 1 μM (final concentration) NDI-094311 as high/positive control.

T1 sequence (P53396 whole entry): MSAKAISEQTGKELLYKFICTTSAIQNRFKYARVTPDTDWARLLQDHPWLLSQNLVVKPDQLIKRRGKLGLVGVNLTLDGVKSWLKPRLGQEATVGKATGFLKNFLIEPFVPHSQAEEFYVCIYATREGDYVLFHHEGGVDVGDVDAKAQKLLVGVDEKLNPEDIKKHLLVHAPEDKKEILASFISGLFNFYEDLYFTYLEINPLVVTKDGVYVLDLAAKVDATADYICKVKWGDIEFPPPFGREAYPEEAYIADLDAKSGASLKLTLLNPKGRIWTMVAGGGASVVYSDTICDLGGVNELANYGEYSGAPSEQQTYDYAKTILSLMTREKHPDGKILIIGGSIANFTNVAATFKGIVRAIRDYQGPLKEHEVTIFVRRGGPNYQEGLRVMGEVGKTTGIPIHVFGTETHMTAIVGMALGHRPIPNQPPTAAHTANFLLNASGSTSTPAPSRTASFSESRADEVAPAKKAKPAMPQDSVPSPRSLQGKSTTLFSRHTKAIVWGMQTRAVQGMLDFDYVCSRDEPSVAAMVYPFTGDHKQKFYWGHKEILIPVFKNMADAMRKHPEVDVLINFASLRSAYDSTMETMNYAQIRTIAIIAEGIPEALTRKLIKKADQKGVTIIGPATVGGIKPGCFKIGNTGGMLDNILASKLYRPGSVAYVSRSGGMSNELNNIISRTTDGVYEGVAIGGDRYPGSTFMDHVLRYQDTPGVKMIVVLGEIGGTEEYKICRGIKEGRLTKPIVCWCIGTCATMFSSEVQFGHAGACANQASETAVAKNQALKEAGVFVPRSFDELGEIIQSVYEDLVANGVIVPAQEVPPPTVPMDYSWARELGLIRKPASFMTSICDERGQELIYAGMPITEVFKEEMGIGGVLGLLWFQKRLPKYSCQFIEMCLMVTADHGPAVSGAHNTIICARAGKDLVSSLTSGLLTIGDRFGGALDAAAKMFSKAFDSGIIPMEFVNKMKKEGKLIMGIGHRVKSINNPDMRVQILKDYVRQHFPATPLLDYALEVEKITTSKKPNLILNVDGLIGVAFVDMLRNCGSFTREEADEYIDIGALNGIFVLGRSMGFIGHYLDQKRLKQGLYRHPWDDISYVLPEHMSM

SMILES	IC50 [1] [nM]	IC50 [2] [nM]
CN1Cc2ccccc2-c2cc(c(F)cc2F)NS(=O)(=O)c2cc(cc(Cl)c2O)C1=O [Compound 91, 13-chloro-19,21-difluoro-14-hydroxy-9-methyl-16,16-dioxo-16λ6-thia-9,17-diazatetracyclo[16.3.1.111,15.02,7]tricosa-1(22),2,4,6,11(23),12,14,18,20-nonaen-10-one]	100 to 10000	≥ 50000
O=C1OCCOc2ccccc2-c2cc(c(F)cc2F)NS(=O)(=O)c2cc1ccc2C(F)F [Compound 60, 16-(difluoromethyl)-21,23-difluoro-18,18-dioxo-8,11-dioxa-18λ6-thia-19-azatetracyclo[18.3.1.113,17.02,7]pentacosa-1(23),2(7),3,5,13(25),14,16,20(24),21-nonaen-12-one]	≥ 10000	≥ 50000
O=C1OCCCc2ccccc2-c2ccc(F)c(c2)NS(=O)(=O)c2cc1cc(Cl)c2O [Compound 42, 15-chloro-21-fluoro-16-hydroxy-18,18-dioxo-11-oxa-18λ6-thia-19-azatetracyclo[18.3.1.113,17.02,7]pentacosa-1(23),2(7),3,5,13,15,17(25),20(24),21-nonaen-12-one]	20 to 100	< 300
O=C1c2cc(Cl)c(O)c(c2)S(=O)(=O)Nc2cc(c(F)cc2F)-c2cccc3c2CN1C3 [Compound 89, 13-chloro-19,21-difluoro-14-hydroxy-16,16-dioxo-16λ6-thia-9,17-diazapentacyclo[16.3.1.16,9.111,15.02,7]tetracosa-1(21),2(7),3,5,11,13,15(23),18(22),19-nonaen-10-one]	100 to 10000	≥ 50000
O=C1NCCOc2ccccc2-c2cc(c(F)cc2F)NC(=O)c2cc1ccc2O [Compound 12, 21,23-difluoro-16-hydroxy-8-oxa-11,19-diazatetracyclo[18.3.1.1^13,17.0^2,7]pentacosa-1(23),2,4,6,13,15,17(25),20(24),21-nonaene-12,18-dione]	≥ 10000	≥ 50000
O=C1OCCOc2ccccc2-c2cc(c(F)cc2F)NS(=O)(=O)c2cc1cc(Cl)n2 [Compound 61, 15-chloro-21,23-difluoro-18,18-dioxo-8,11-dioxa-18λ6-thia-16,19-diazatetracyclo[18.3.1.113,17.02,7]pentacosa-1(24),2,4,6,13,15,17(25),20,22-nonaen-12-one]	≥ 10000	≥ 50000
O=C1OCCOc2cc3cn[nH]c3cc2-c2cc(c(F)cc2F)NS(=O)(=O)c2cc1cc(Cl)c2O [Compound 53, 18-chloro-24,26-difluoro-19-hydroxy-21,21-dioxo-11,14-dioxa-21λ6-thia-5,6,22-triazapentacyclo[21.3.1.116,20.02,10.04,8]octacosa-1(27),2(10),3,6,8,16(28),17,19,23,25-decaen-15-one]	100 to 10000	≥ 50000
O=C1OCc2cccnc2-c2cc(c(F)cc2F)NS(=O)(=O)c2cc1cc(Cl)c2O [Compound 87, 13-chloro-19,21-difluoro-14-hydroxy-16,16-dioxo-9-oxa-16λ6-thia-3,17-diazatetracyclo[16.3.1.111,15.02,7]tricosa-1(21),2(7),3,5,11,13,15(23),18(22),19-nonaen-10-one]	20 to 100	≥ 50000
Cc1cc2cc(c1O)S(=O)(=O)Nc1cc(c(F)cc1F)-c1ccccc1CCOC2=O [Compound 75, 20,22-difluoro-15-hydroxy-14-methyl-17,17-dioxo-10-oxa-17λ6-thia-18-azatetracyclo[17.3.1.112,16.02,7]tetracosa-1(23),2,4,6,12,14,16(24),19,21-nonaen-11-one]	100 to 10000	300 to 1000
O=C1OCc2ncccc2-c2cc(c(F)cc2F)NS(=O)(=O)c2cc1cc(Cl)c2O [Compound 88, 13-chloro-19,21-difluoro-14-hydroxy-16,16-dioxo-9-oxa-16λ6-thia-6,17-diazatetracyclo[16.3.1.111,15.02,7]tricosa-1(21),2(7),3,5,11,13,15(23),18(22),19-nonaen-10-one]	100 to 10000	≥ 50000
O=C1OCCOc2ccccc2-c2ccc(C3CC3)c(c2)NS(=O)(=O)c2cc1cc(Cl)c2O [Compound 57, 15-chloro-21-cyclopropyl-16-hydroxy-18,18-dioxo-8,11-dioxa-18λ6-thia-19-azatetracyclo[18.3.1.113,17.02,7]pentacosa-1(23),2(7),3,5,13(25),14,16,20(24),21-nonaen-12-one]	20 to 100	1000 to 50000
O=C1OCCOc2ccccc2-c2cc(c(F)cc2F)NS(=O)(=O)c2cc1c[nH]c2=O [Compound 36, 21,23-difluoro-18,18-dioxo-8,11-dioxa-18λ6-thia-15,19-diazatetracyclo[18.3.1.113,17.02,7]pentacosa-1(23),2(7),3,5,13,17(25),20(24),21-octaene-12,16-dione]	20 to 100	≥ 50000

The remaining lines, values ahead:

IC50 [1] [nM]	IC50 [2] [nM]	SMILES
20 to 100	1000 to 50000	O=C1OCC2CN(C2)c2ccccc2-c2cc(c(F)cc2F)NS(=O)(=O)c2cc1cc(Cl)c2O [Compound 76, 16-chloro-22,24-difluoro-17-hydroxy-19,19-dioxo-12-oxa-19λ6-thia-8,20-diazapentacyclo[19.3.1.18,10.114,18.02,7]heptacosa-1(25),2,4,6,14,16,18(26),21,23-nonaen-13-one]
20 to 100	< 300	O=C1OCCOc2ccccc2-c2ccc(C(F)(F)F)c(c2)NS(=O)(=O)c2cc1cc(Cl)c2O [Compound 58, 15-chloro-16-hydroxy-18,18-dioxo-21-(trifluoromethyl)-8,11-dioxa-18λ6-thia-19-azatetracyclo[18.3.1.113,17.02,7]pentacosa-1(24),2(7),3,5,13(25),14,16,20,22-nonaen-12-one]
< 20	300 to 1000	O=S1(=O)Nc2cc(c(F)cc2F)-c2ccccc2OCCOCc2cc(Cl)c(O)c1c2 [Compound 67, 15-chloro-21,23-difluoro-18,18-dioxo-8,11-dioxa-18λ6-thia-19-azatetracyclo[18.3.1.113,17.02,7]pentacosa-1(23),2(7),3,5,13,15,17(25),20(24),21-nonaen-16-ol]
< 20	< 300	O=C1OCCOc2ncccc2-c2cc(c(F)cc2F)NS(=O)(=O)c2cc1cc(Cl)c2O [Compound 32, 15-chloro-21,23-difluoro-16-hydroxy-8,11-dioxa-18lambda6-thia-6,19-diazatetracyclo[18.3.1.1^13,17.0^2,7]pentacosa-1(24),2,4,6,13,15,17(25),20,22-nonaene-12,18,18-trione]
< 20	< 300	O=C1OCc2ccc(F)cc2-c2cc(F)c(F)c(c2)NS(=O)(=O)c2cc1cc(Cl)c2O [Compound 83, 13-chloro-4,19,20-trifluoro-14-hydroxy-16,16-dioxo-9-oxa-16λ6-thia-17-azatetracyclo[16.3.1.111,15.02,7]tricosa-1(21),2,4,6,11,13,15(23),18(22),19-nonaen-10-one]
< 20	≥ 50000	CN1CCc2ccccc2-c2cc(c(F)cc2F)NS(=O)(=O)c2cc(cc(Cl)c2O)C1=O [Compound 71, 14-chloro-20,22-difluoro-15-hydroxy-10-methyl-17,17-dioxo-17λ6-thia-10,18-diazatetracyclo[17.3.1.112,16.02,7]tetracosa-1(22),2(7),3,5,12,14,16(24),19(23),20-nonaen-11-one]
< 20	< 300	O=C1Cc2cc(Cl)c(O)c(c2)S(=O)(=O)Nc2cc(c(F)cc2F)-c2ccccc2CO1 [Compound 68, 14-chloro-20,22-difluoro-15-hydroxy-17,17-dioxo-9-oxa-17λ6-thia-18-azatetracyclo[17.3.1.112,16.02,7]tetracosa-1(22),2(7),3,5,12(24),13,15,19(23),20-nonaen-10-one]
